Test: Measurement of pKa of ethanolamine (potentiometric titration)
Conditions: aqueous solution of the ethanolamine

pKa: 7.48
SMILES: COCCOCCN(CCOCCOC)CCOCCOC [Tris[2-(2-methoxyethoxy)ethyl]amine, tris[2-(2-methoxyethoxy)ethyl]amine]
